What all share (assay): Minimum inhibitory concentration, conventional tube dilution method
Format in all cases: cell-based

Test [1] relates to Candida albicans. Conditions: fungus, tube dilution, 37 degrees, 24 hours, between 1 and 6 strains, mg/100 cc, decimal comma, read-out: Minimal Inhibitory Concentration, Cand. Alb. An excerpt:
(§1) The activity of some of the new nitrofuryl quinoline derivatives of the present invention is exemplified in Table 1 against a gram-positive (Staph. aureus), a gram-negative (Salmonella) bacterium and a fungus (Candida albicans). Table 1 indicates the minimum inhibitory concentration of the compound under reference in mg/100 cc required in order to inhibit the growth between 1 and 6 strains of each type. The measurements have been carried out by the conventional tube dilution method at 37 degrees after 24 hours.

Test [2] concerns Salmonella. As to conditions: read-out: Minimal Inhibitory Concentration, Salm.
Description: as §1

In test [3] the test system is Staph. aureus. Conditions: Staphylococcus aureus; gram-positive; tube dilution, 37 degrees, 24 hours; between 1 and 6 strains; mg/100 cc; decimal comma; read-out: Minimal Inhibitory Concentration, Staph. aureus.
Description: as §1

Where [4] appears, read: gram-negative, tube dilution, 37 degrees, 24 hours, between 1 and 6 strains, mg/100 cc, decimal comma.

≈ marks a conversion by molar mass, not a printed value. Where two headings read alike, the source gives them in different places.

For the compound `CCc1ccc2nc(CC)cc(-c3ccc([N+](=O)[O-])o3)c2c1` [C2 H5 H NF H C2 H5 H H, 2-ethyl-4-[2'-(5'-nitrofuryl)]-6-ethyl quinoline], the MIC in test [1] is more than 50 µg/mL; in test [2] (setting [4]), more than 10 µg/mL.
For the compound `CCc1cc(-c2ccc([N+](=O)[O-])o2)c2cc(C)ccc2n1` [C2 H5 H NF H CH3 H H, 2-ethyl-4-[2'-(5'-nitrofuryl)]-6-methyl quinoline], the MIC in test [1] is less than 5 µg/mL; in test [2] (24 h), more than 10 µg/mL.
Turning to `CC(=O)OCc1cc(-c2ccc([N+](=O)[O-])o2)c2ccccc2n1` [CH2 OCOCH3 H NF H H H H, 2-acetoxymethyl-4-[2'-(5'-nitrofuryl)]quinoline], the MIC was 5 µg/mL (≈ 16 µM) in test [1] and more than 50 µg/mL in test [2] (setting [4]).
The like results for `CC(=O)OCc1cc(-c2ccc([N+](=O)[O-])o2)c2ccc(OC(C)=O)cc2n1` [CH2 OCOCH3 H NF H H OCOCH3 H, 2-acetoxymethyl-4-[2'-(5'-nitrofuryl)]-7-acetoxy quinoline] were, in that order, 50 to 100 µg/mL (≈ 135 to 270 µM) and 10 to 25 µg/mL (≈ 27 to 67.5 µM).
Consider `CCCCOc1ccc2c(-c3ccc([N+](=O)[O-])o3)cc(C)nc2c1` [CH3 H 5NF H H OC4 H9 H, 2-methyl-4-[2'-(5'-nitrofuryl)]-7-n-butoxy quinoline], for which the MIC in test [1] is more than 50 µg/mL; in test [3], 0.5 µg/mL (≈ 1.53 µM).
Consider `CCc1cccc2c(-c3ccc([N+](=O)[O-])o3)cc(C)nc12` [CH3 H NF H H H C2 H5], for which the MIC in test [1] is 100 µg/mL (≈ 354 µM); in test [2] (setting [4]) it was more than 50 µg/mL.
For the compound `Cc1cc(-c2ccc([N+](=O)[O-])o2)c2ccc(N)c(C)c2n1` [CH3 H NF H H NH2 CH3], the MIC is 5 µg/mL (≈ 17.6 µM) in test [1] and 1 to 5 µg/mL (≈ 3.53 to 17.6 µM) in test [2] (24 h).
Turning to `COc1ccc2c(-c3ccc([N+](=O)[O-])o3)cc(C)nc2c1` [CH3 H NF H H OCH3 H, 2-methyl-4-[2'-(5'-nitrofuryl)]-7-methoxy quinoline], the MIC in test [1] amounted to 5 µg/mL (≈ 17.6 µM); in test [2] (setting [4]), 10 µg/mL (≈ 35.2 µM).
As to `CC(=O)Oc1ccc2c(-c3ccc([N+](=O)[O-])o3)cc(C)nc2c1` [CH3 H NF H H OCOCH3 H], the MIC in test [1] turned out to be 10 µg/mL (≈ 32 µM); in test [2] (setting [4]) it was 2 µg/mL (≈ 6.4 µM).
The like results for `COc1cc2nc(C)cc(-c3ccc([N+](=O)[O-])o3)c2cc1N` [CH3 H NF H NH2 OCH3 H, 2-methyl-4-[2'-(5'-nitrofuryl)]-6-amino-7-methoxy-quinoline] were, in that order, 5 µg/mL (≈ 16.7 µM) and 1 to 5 µg/mL (≈ 3.34 to 16.7 µM).
Consider `COc1cc2nc(C)cc(-c3ccc([N+](=O)[O-])o3)c2cc1NC(C)=O` [CH3 H NF H NHCOCH3 OCH3 H, 2-methyl-4-[2'-(5'-nitrofuryl)]-6-acetylamino-7-methoxy-quinoline], for which the figures for the MIC in test [1] and in test [2] (setting [4]) were 50 µg/mL (≈ 146 µM) and more than 50 µg/mL, respectively.
With `CCc1ccc2nc(C(C)C)cc(-c3ccc([N+](=O)[O-])o3)c2c1` [CH(CH3)2 H 5NF H C2 H5 H H, 2-isopropyl-4-[2'-(5'-nitrofuryl)]-6-ethyl quinoline], the MIC in test [1] came to 50 µg/mL (≈ 161 µM); in test [3], 0.5 µg/mL (≈ 1.61 µM).
As for `O=[N+]([O-])c1ccc(-c2cc(C=NO)nc3ccccc23)o1` [CHNOH H NF H H H H, 4-[2'-(5'-nitrofuryl)]quinoline-2-carboxaldehyde oxime], the MIC amounted to 10 µg/mL (≈ 35.3 µM) in test [1] and 5 µg/mL (≈ 17.7 µM) in test [2] (setting [4]).
With `CCOc1ccc2c(-c3ccc([N+](=O)[O-])o3)cc(C=NO)nc2c1` [CHNOH H NF H H OC2 H5 H], the MIC in test [1] is 50 µg/mL (≈ 153 µM); in test [2] (setting [4]), more than 50 µg/mL.
For the compound `CC(=O)c1cc(-c2ccc([N+](=O)[O-])o2)c2ccccc2n1` [COCH3 H NF H H H H, 4-[2'-(5'-nitrofuryl)]quinoline-2-methyl ketone], the MIC in test [1] and in test [2] (setting [4]) was more than 50 µg/mL in each case.
`CCOC(=O)c1cc(-c2ccc([N+](=O)[O-])o2)c2ccccc2n1` [COOC2 H5 H NF H H H H, 2-carbethoxy-4-[2'-(5'-nitrofuryl)]quinoline]: the MIC in test [1] and in test [2] (setting [4]) was more than 50 µg/mL each time.
Take `CCc1cc(-c2ccc([N+](=O)[O-])o2)c2cc(C)ccc2[n+]1[O-]` [O C2 H5 H NF H CH3 H H]: the MIC is less than 5 µg/mL in test [1] and 0.1 µg/mL (≈ 0.335 µM) in test [3].
With `CCc1cc(-c2ccc([N+](=O)[O-])o2)c2ccc(OC)cc2[n+]1[O-]` [O C2 H5 H NF H H OCH3 H], the values for the MIC in test [1] and in test [3] were more than 50 µg/mL and 0.01 to 0.5 µg/mL (≈ 0.0318 to 1.59 µM), respectively.
Consider `CCc1cc(-c2ccc([N+](=O)[O-])o2)c2ccc(O)cc2[n+]1[O-]` [O C2 H5 H NF H H OH H], for which the MIC was found to be 25 µg/mL (≈ 83.3 µM) in test [1] and 5 µg/mL (≈ 16.7 µM) in test [2] (setting [4]).
The like results for `Cc1ccc2c(-c3ccc([N+](=O)[O-])o3)cc(C)[n+]([O-])c2c1` [O CH3 H NF H H CH3 H] were, in that order, 5 µg/mL (≈ 17.6 µM) and more than 50 µg/mL.
Turning to `CCCCOc1ccc2c(-c3ccc([N+](=O)[O-])o3)cc(C)[n+]([O-])c2c1` [O CH3 H NF H H OC4 H9 H], the results for the MIC in test [1] and in test [3] were more than 10 µg/mL and 0.5 to 1 µg/mL (≈ 1.46 to 2.92 µM), respectively.
For `CC(=O)Oc1ccc2c(-c3ccc([N+](=O)[O-])o3)cc(C)[n+]([O-])c2c1` [O CH3 H NF H H OCOCH3 H], the values for the MIC in test [1] and in test [2] (setting [4]) were 50 µg/mL (≈ 152 µM) and 5 µg/mL (≈ 15.2 µM), respectively.
`Cc1cc(-c2ccc([N+](=O)[O-])o2)c2ccc(O)cc2[n+]1[O-]` [O CH3 H NF H H OH H, 2-Methyl-4-[2'-(5'-nitrofuryl)]-7-hydroxy quinoline N-oxide]: the MIC was 100 µg/mL (≈ 349 µM) in test [1] and 5 to 10 µg/mL (≈ 17.5 to 34.9 µM) in test [2] (setting [4]).
`COc1cc2c(cc1N)c(-c1ccc([N+](=O)[O-])o1)cc(C)[n+]2[O-]` [O CH3 H NF H NH2 OCH3 H]: the results for the MIC in test [1] and in test [2] (setting [4]) were more than 50 µg/mL and 50 µg/mL (≈ 159 µM), respectively.
In the case of `COc1cc2c(cc1NC(C)=O)c(-c1ccc([N+](=O)[O-])o1)cc(C)[n+]2[O-]` [O CH3 H NF H NHCOCH3 OCH3 H], the MIC was 50 µg/mL (≈ 140 µM) in test [1] and 10 to 25 µg/mL (≈ 28 to 70 µM) in test [2] (setting [4]).
In the case of `COc1cc2c(-c3ccc([N+](=O)[O-])o3)cc(C)[n+]([O-])c2cc1OC` [O CH3 H NF H OCH3 OCH3 H], the MIC in test [1] and in test [2] (setting [4]) was more than 50 µg/mL each time.
Take `O=[N+]([O-])c1ccc(-c2cc(C=NO)[n+]([O-])c3ccccc23)o1` [O CHNOH H NF H H H H]: the MIC was 0.5 µg/mL (≈ 1.67 µM) in test [1] and 1 to 5 µg/mL (≈ 3.34 to 16.7 µM) in test [2] (setting [4]).
For `Cc1ccc2c(-c3ccc([N+](=O)[O-])o3)cc(C(=O)O)[n+]([O-])c2c1` [O COOH H NF H H CH3 H, 2-carboxy-4-[2'-(5'-nitrofuryl)]-7-methyl quinoline N-oxide], the MIC in test [1] worked out at 50 µg/mL (≈ 159 µM); in test [3], 0.5 µg/mL (≈ 1.59 µM).
On to `O=[N+]([O-])c1ccc(-c2ccc3ccccc3[n+]2[O-])o1` [O NF H H H H H H], for which the MIC in test [1] was less than 5 µg/mL; in test [3], 0.5 µg/mL (≈ 1.95 µM).
Take `CNN=Cc1cc(-c2ccc([N+](=O)[O-])o2)c2ccccc2n1` [drawing 7 H NF H H H H]: the MIC in test [1] lay within 10 to 25 µg/mL (≈ 33.8 to 84.4 µM); in test [2] (setting [4]), 1 to 5 µg/mL (≈ 3.38 to 16.9 µM).
In the case of `NC(=O)NN=Cc1cc(-c2ccc([N+](=O)[O-])o2)c2ccccc2n1` [drawing 8 H NF H H H H], the MIC is 25 to 50 µg/mL (≈ 76.9 to 154 µM) in test [1] and 5 µg/mL (≈ 15.4 µM) in test [2] (setting [4]).
On the same counts, the results for `O=[N+]([O-])c1ccc(-c2cc(C=NNCCO)nc3ccccc23)o1` [drawing 9 H NF H H H H] are 25 µg/mL (≈ 76.6 µM) and 5 µg/mL (≈ 15.3 µM).
`O=C1OCCN1N=Cc1cc(-c2ccc([N+](=O)[O-])o2)c2ccccc2n1` [drawing 10 H NF H H H H]: the MIC in test [1] is 5 µg/mL (≈ 14.2 µM); in test [3], 0.1 to 0.5 µg/mL (≈ 0.284 to 1.42 µM).

Source of the values: US4224448A, “2'-(5'-Nitrofuryl) substituted quinolines” (priority 1966, dated 1980).
